Measured values taken from ChEMBL document CHEMBL3822455, “Aryl or heteroaryl substituted aminal derivatives of HCV NS5A inhibitor MK-8742” (Bioorg Med Chem Lett, 2016).

Experiments:
[1] = AUC in Sprague-Dawley rat at 5 mg/kg, po; type: ADME, organism-based; details: Sprague-Dawley, in vivo
Hepatitis C virus [2] = assay: Antiviral activity against HCV genotype 2a assessed as replicon RNA level measured after 3 days by real-time PCR method; type: functional, organism-based, Hepacivirus hominis; details: 72 h
Hepatitis C virus [3] = assay: Antiviral activity against HCV genotype 3a assessed as replicon RNA level measured after 3 days by real-time PCR method; type: functional, organism-based, Hepacivirus hominis; details: 72 h
Hepatitis C virus [4] = assay: Antiviral activity against HCV genotype 1a assessed as replicon RNA level measured after 3 days by real-time PCR method; type: functional, organism-based, Hepacivirus hominis; details: subtype 1a, 72 h
Hepatitis C virus [5] = assay: Antiviral activity against HCV genotype 1a harboring NS5A L31V mutant assessed as replicon RNA level measured after 3 days by real-time PCR method; type: functional, organism-based, Hepacivirus hominis; details: subtype 1a, 72 h
Hepatitis C virus [6] = assay: Antiviral activity against HCV genotype 2b assessed as replicon RNA level measured after 3 days by real-time PCR method; type: functional, organism-based, Hepacivirus hominis; details: 72 h
[7] = Half life in Sprague-Dawley rat at 2 mg/kg, iv or 5 mg/kg, po; type: ADME, organism-based; details: in vivo
Hepatitis C virus [8] = assay: Antiviral activity against HCV genotype 1a harboring NS5A Y93H mutant assessed as replicon RNA level measured after 3 days by real-time PCR method; type: functional, organism-based, Hepacivirus hominis; details: subtype 1a, 72 h
Hepatitis C virus [9] = assay: Antiviral activity against HCV genotype 4a assessed as replicon RNA level measured after 3 days by real-time PCR method; type: functional, organism-based, Hepacivirus hominis; details: 72 h
[10] = Oral bioavailability in Sprague-Dawley rat at 5 mg/kg; type: ADME, organism-based; details: Sprague-Dawley, in vivo
[11] = Clearance in Sprague-Dawley rat at 2 mg/kg, iv or 5 mg/kg, po; type: ADME, organism-based; details: in vivo
Hepatitis C virus [12] = assay: Antiviral activity against HCV genotype 1b assessed as replicon RNA level measured after 3 days by real-time PCR method; type: functional, organism-based, Hepacivirus hominis; details: 72 h

SMILES | AUC [1] | EC50 (Hepatitis C virus [2]) | EC50 (Hepatitis C virus [3]) | EC50 (Hepatitis C virus [4]) | EC50 (Hepatitis C virus [5]) | EC50 (Hepatitis C virus [6]) | half-life [7] | EC50 (Hepatitis C virus [8]) | EC50 (Hepatitis C virus [9]) | bioavailability [10] | clearance [11] | EC50 (Hepatitis C virus [12])
COC(=O)N[C@H](C(=O)N1CCC[C@H]1c1ncc(-c2ccc3c(c2)OC(c2ccccc2F)n2c-3cc3cc(-c4cnc([C@@H]5CCCN5C(=O)[C@@H](NC(=O)OC)C(C)C)[nH]4)ccc32)[nH]1)C(C)C (some centres not stated) | 0.67 µM·h | 0.003 nM | 0.1 nM | 0.002 nM | 0.4 nM | 3 nM | 4.6 h | 6 nM | 0.007 nM | 8% | 12 mL/min/kg | 0.003 nM
COC(=O)N[C@H](C(=O)N1CCC[C@H]1c1ncc(-c2ccc3c(c2)OC(c2cccc(F)c2)n2c-3cc3cc(-c4cnc([C@@H]5CCCN5C(=O)[C@@H](NC(=O)OC)C(C)C)[nH]4)ccc32)[nH]1)C(C)C (some centres not stated) | 1.5 µM·h | 0.004 nM | 0.04 nM | 0.003 nM | 0.2 nM | 1 nM | 5.4 h | 4 nM | 0.006 nM | 12% | 7 mL/min/kg | 0.002 nM
COC(=O)N[C@H](C(=O)N1CCC[C@H]1c1ncc(-c2ccc3c(c2)OC(c2ccc(Cl)cc2)n2c-3cc3cc(-c4cnc([C@@H]5CCCN5C(=O)[C@@H](NC(=O)OC)C(C)C)[nH]4)ccc32)[nH]1)C(C)C (some centres not stated) | 0.88 µM·h | 0.005 nM | 0.04 nM | 0.009 nM | 0.3 nM |  | 4.5 h | 5 nM | 0.01 nM | 10% | 10 mL/min/kg | 0.01 nM
COC(=O)N[C@H](C(=O)N1CCC[C@H]1c1ncc(-c2ccc3c(c2)OC(c2cc(F)cc(F)c2)n2c-3cc3cc(-c4cnc([C@@H]5CCCN5C(=O)[C@@H](NC(=O)OC)C(C)C)[nH]4)ccc32)[nH]1)C(C)C (some centres not stated) | 1.5 µM·h | 0.02 nM | 0.09 nM | 0.011 nM | 0.3 nM | 0.5 nM | 5.1 h | 4 nM | 0.004 nM | 15% | 9 mL/min/kg | 0.01 nM
COC(=O)N[C@H](C(=O)N1CCC[C@H]1c1ncc(-c2ccc3c(c2)OC(c2cccc(Cl)c2)n2c-3cc3cc(-c4cnc([C@@H]5CCCN5C(=O)[C@@H](NC(=O)OC)C(C)C)[nH]4)ccc32)[nH]1)C(C)C (some centres not stated) | 1.4 µM·h | 0.01 nM | 0.03 nM | 0.003 nM | 0.1 nM | 0.4 nM | 4.1 h | 3 nM | 0.002 nM | 12% | 8 mL/min/kg | 0.002 nM
COC(=O)N[C@H](C(=O)N1CCC[C@H]1c1ncc(-c2ccc3c(c2)OC(c2cccc(OC(F)(F)F)c2)n2c-3cc3cc(-c4cnc([C@@H]5CCCN5C(=O)[C@@H](NC(=O)OC)C(C)C)[nH]4)ccc32)[nH]1)C(C)C (mixture of isomers) |  | 0.003 nM | 0.03 nM | 0.005 nM | 0.2 nM | 3 nM |  | 6.2 nM | 0.01 nM |  |  | 0.003 nM
CCOc1cccc(C2Oc3cc(-c4cnc([C@@H]5CCCN5C(=O)[C@@H](NC(=O)OC)C(C)C)[nH]4)ccc3-c3cc4cc(-c5cnc([C@@H]6CCCN6C(=O)[C@@H](NC(=O)OC)C(C)C)[nH]5)ccc4n32)c1 (mixture of isomers) |  | 0.01 nM | 0.05 nM | 0.02 nM | 0.2 nM | 0.4 nM |  | 1.8 nM | 0.0005 nM |  |  | 0.001 nM
COC(=O)N[C@H](C(=O)N1CCC[C@H]1c1ncc(-c2ccc3c(c2)OC(c2cccc(C(=O)O)c2)n2c-3cc3cc(-c4cnc([C@@H]5CCCN5C(=O)[C@@H](NC(=O)OC)C(C)C)[nH]4)ccc32)[nH]1)C(C)C (mixture of isomers) |  | 11.8 nM | 290 nM | 2.83 nM | 212 nM | > 1000 nM |  | > 1000 nM | 5.15 nM |  |  | 2.4 nM
COC(=O)N[C@H](C(=O)N1CCC[C@H]1c1ncc(-c2ccc3c(c2)OC(c2ccc(-c4cncnc4)cc2)n2c-3cc3cc(-c4cnc([C@@H]5CCCN5C(=O)[C@@H](NC(=O)OC)C(C)C)[nH]4)ccc32)[nH]1)C(C)C (mixture of isomers) |  | 0.04 nM | 1 nM | 0.07 nM | 10 nM | 13 nM |  | 70 nM | 0.04 nM |  |  | 0.023 nM
COC(=O)N[C@H](C(=O)N1CCC[C@H]1c1ncc(-c2ccc3c(c2)OC(c2ccc(OC)cc2)n2c-3cc3cc(-c4cnc([C@@H]5CCCN5C(=O)[C@@H](NC(=O)OC)C(C)C)[nH]4)ccc32)[nH]1)C(C)C (mixture of isomers) |  | 0.004 nM | 0.07 nM | 0.01 nM | 0.3 nM | 0.8 nM |  | 15 nM | 0.008 nM |  |  | 0.007 nM
COC(=O)N[C@H](C(=O)N1CCC[C@H]1c1ncc(-c2ccc3c(c2)OC(c2cccc(C(N)=O)c2)n2c-3cc3cc(-c4cnc([C@@H]5CCCN5C(=O)[C@@H](NC(=O)OC)C(C)C)[nH]4)ccc32)[nH]1)C(C)C (mixture of isomers) |  | 0.51 nM | > 1 nM | 0.09 nM | 7 nM | > 100 nM |  | 19 nM | > 1 nM |  |  | 0.01 nM
COC(=O)N[C@H](C(=O)N1CCC[C@H]1c1ncc(-c2ccc3c(c2)OC(c2ccc(C#N)cc2)n2c-3cc3cc(-c4cnc([C@@H]5CCCN5C(=O)[C@@H](NC(=O)OC)C(C)C)[nH]4)ccc32)[nH]1)C(C)C (mixture of isomers) |  | 0.006 nM | 0.25 nM | 0.004 nM | 0.6 nM | 6.5 nM |  | 12 nM | 0.01 nM |  |  | 0.003 nM
COC(=O)N[C@H](C(=O)N1CCC[C@H]1c1ncc(-c2ccc3c(c2)OC(c2ccc(-c4ccc5cncn5c4)cc2)n2c-3cc3cc(-c4cnc([C@@H]5CCCN5C(=O)[C@@H](NC(=O)OC)C(C)C)[nH]4)ccc32)[nH]1)C(C)C (mixture of isomers) |  | 0.04 nM | 1 nM | 0.03 nM | 2 nM | 4 nM |  | 20 nM | 0.03 nM |  |  | 0.01 nM
COC(=O)N[C@H](C(=O)N1CCC[C@H]1c1ncc(-c2ccc3c(c2)OC(c2cccnc2)n2c-3cc3cc(-c4cnc([C@@H]5CCCN5C(=O)[C@@H](NC(=O)OC)C(C)C)[nH]4)ccc32)[nH]1)C(C)C (mixture of isomers) |  | 0.04 nM | 2 nM | 0.005 nM | 0.9 nM | 2 nM |  | 7 nM | 0.03 nM |  |  | 0.009 nM
COC(=O)N[C@H](C(=O)N1CCC[C@H]1c1ncc(-c2ccc3c(c2)OC(c2cccc(C(F)(F)F)c2)n2c-3cc3cc(-c4cnc([C@@H]5CCCN5C(=O)[C@@H](NC(=O)OC)C(C)C)[nH]4)ccc32)[nH]1)C(C)C (mixture of isomers) |  | 0.003 nM | 0.04 nM | 0.003 nM | 0.62 nM | 2 nM |  | 2 nM | 0.01 nM |  |  | 0.003 nM
COC(=O)N[C@H](C(=O)N1CCC[C@H]1c1ncc(-c2ccc3c(c2)OC(c2ccc(-c4c(C)nn(C)c4C)cc2)n2c-3cc3cc(-c4cnc([C@@H]5CCCN5C(=O)[C@@H](NC(=O)OC)C(C)C)[nH]4)ccc32)[nH]1)C(C)C (mixture of isomers) |  | 0.02 nM | 0.2 nM | 0.04 nM | < 2 nM | 5 nM |  | 15 nM | 0.03 nM |  |  | 0.02 nM
